In brackets after ≈: the same amount, converted by molar mass.
Tested on: M. tuberculosis H37Rv
Test: microbe, parasite or virus in culture
Conditions: Mycobacterium tuberculosis, 192 h, read-out: Mtb MIC (µM)

| Compound | MIC |
| --- | --- |
| O=c1[nH]c(SCc2cc(F)cc3c2OC(c2ccccc2)OC3)nc2sc3c(c12)CCCC3 (stereo not drawn) [Z13684502] | 100 µM (≈ 48.1 µg/mL) |
| Cc1ccc(-c2nn(-c3ccccc3)cc2CCC(=O)Nc2cccc3ccccc23)cc1 [Z56806542] | 100 µM (≈ 43.2 µg/mL) |
| O=c1[nH]c(SCc2cn(-c3ccccc3)nc2-c2ccccc2)nc2c1cnn2-c1ccccc1 [Z150144208] | 3.1 µM (≈ 1.48 µg/mL) |
| O=C(/C=C/c1cn(-c2ccccc2)nc1-c1ccc(F)cc1)N1CCCS/C1=N\c1ccccc1 [Z27871611] | 100 µM (≈ 48.3 µg/mL) |
| O=C(c1ccccc1)C1CCN(C2c3ccccc3-c3ccccc32)CC1 [Z646019388] | 100 µM (≈ 35.3 µg/mL) |
| O=C(Nc1ccc(F)c(S(=O)(=O)Nc2cccc(C(F)(F)F)c2)c1)c1cc2ccccc2o1 [Z33249504] | 50 µM (≈ 23.9 µg/mL) |
| CCn1c2ccccc2c2cc(NC(=O)c3cc(-c4ccccc4)nc4ccccc34)ccc21 [Z30593627] | 100 µM (≈ 44.2 µg/mL) |
| O=C(NCc1ccccc1)c1ccc(Oc2nc(-c3ccccc3)cc(-c3ccccc3)n2)cc1 [Z1037335532] | 100 µM (≈ 45.8 µg/mL) |
| Cc1ccc(-c2cc(C(=O)N3CCC(C(=O)Nc4ccc5c(c4)OCO5)CC3)c3ccccc3n2)o1 [Z99494285] | 100 µM (≈ 48.4 µg/mL) |
| O=C(NNc1ccc(F)cc1)c1cccc(S(=O)(=O)N2CCc3ccccc3C2)c1 [Z30877419] | 100 µM (≈ 42.5 µg/mL) |
| Nc1c(-c2ccccc2)c(CN2CCN(c3ccccc3F)CC2)nn1-c1ccc(F)cc1 [Z56903079] | 25 µM (≈ 11.1 µg/mL) |
| O=C(Nc1ccc(F)cc1)C(c1ccccc1)N1C(=O)NC(c2ccccc2)(c2ccccc2)C1=O (stereo not drawn) [Z14471296] | 100 µM (≈ 48 µg/mL) |
| O=C1C(=CNc2cccc(C(F)(F)F)c2)c2ccccc2C(=O)N1c1cccc(C(F)(F)F)c1 [Z31274934] | 6.2 µM (≈ 2.95 µg/mL) |
| O=C(CN1C(=O)NC2(CCOc3ccccc32)C1=O)c1c(-c2ccc(F)cc2)[nH]c2ccccc12 (stereo not drawn) [Z89763517] | 3.1 µM (≈ 1.46 µg/mL) |
| O=C(Nc1nc(-c2cccs2)cs1)c1cc(-c2ccccc2)nc2ccccc12 [Z28307167] | 100 µM (≈ 41.4 µg/mL) |
| Cc1ccc(-c2nc(N3N=C(c4cccc(Br)c4)CC3c3cccc(Br)c3)nc3ccccc23)cc1 (stereo not drawn) [Z1558581154] | 100 µM (≈ 59.8 µg/mL) |
| O=C1c2ccccc2C(=O)N1C(Cc1ccccc1)c1nc2c3ccccc3ncn2n1 (stereo not drawn) [Z2176371175] | 100 µM (≈ 41.9 µg/mL) |
| O=C(COC(=O)c1cc(-c2ccccc2)nn1-c1ccccc1)NC(c1ccccc1)c1ccccc1 [Z15852380] | 100 µM (≈ 48.8 µg/mL) |
| O=C(CCc1ccc(-c2ccccc2)o1)N1CCN(c2ccnc3cc(Cl)ccc23)CC1 [Z285125220] | 100 µM (≈ 44.6 µg/mL) |
| Oc1nc2cc(Cl)ccc2c(-c2ccccc2)c1-c1cc(-c2ccccc2)c2ccc(Cl)cc2n1 [Z2010009645] | 100 µM (≈ 49.3 µg/mL) |
| Fc1ccccc1C1Oc2ccccc2C2CC(c3ccc(-c4ccccc4)cc3)=NN21 (stereo not drawn) [Z56764284] | 100 µM (≈ 42 µg/mL) |
| O=C(c1nn(-c2ccccc2)c(=O)c2ccccc12)N1CCCN(Cc2ccc(Cl)cc2)CC1 [Z212593638] | 50 µM (≈ 23.6 µg/mL) |
| NC(=O)C1Cc2ccccc2CN1C(=O)CCc1c(-c2ccc(F)cc2)[nH]c2ccccc12 (stereo not drawn) [Z143202488] | 100 µM (≈ 44.2 µg/mL) |
| O=C(c1ccccc1)c1ccc(Cl)cc1Nc1cc(-c2ccccc2)c2cc(Cl)ccc2n1 [Z2196034878] | 100 µM (≈ 46.9 µg/mL) |
| c1cncc(-c2nc(N3CCN(Cc4ccc5c(c4)CCO5)CC3)c3ccccc3n2)c1 [Z128095220] | 25 µM (≈ 10.6 µg/mL) |
| c1ccc(-c2ccc(Oc3nc(-c4ccccc4)cc(-c4ccccc4)n3)cc2)cc1 [Z1037335802] | 100 µM (≈ 40 µg/mL) |

| Compound | MIC |
| --- | --- |
| O=C1NC2(CCCC2)C(=O)N1Cc1cn(-c2ccccc2)nc1-c1ccc(Cl)cc1 [Z25701709] | 100 µM (≈ 42.1 µg/mL) |
| O=C(CN1C(=O)NC(c2ccccc2)(c2ccccc2)C1=O)Nc1ccccc1C(=O)NC1CCCC1 [Z54675683] | 100 µM (≈ 49.7 µg/mL) |
| Cc1cccc(-c2nn(-c3ccccc3)cc2C(=O)Oc2ccccc2-c2nc3ccccc3s2)c1 [Z26889353] | 100 µM (≈ 48.8 µg/mL) |
| O=C(c1nn(Cc2ccccc2)c(=O)c2ccccc12)N1CCN(Cc2ccc3c(c2)CCO3)CC1 [Z102666506] | 100 µM (≈ 48.1 µg/mL) |
| CC(NC(=O)CN1C(=O)NC(c2ccccc2)(c2ccccc2)C1=O)c1ccc(Cl)cc1 (stereo not drawn) [Z14475560] | 100 µM (≈ 44.8 µg/mL) |
| Cc1cc(NC(=O)c2cc(-c3ccc(Cl)cc3)nc3ccccc23)n(-c2ccccn2)n1 [Z56802924] | 100 µM (≈ 44 µg/mL) |
| Cc1ccc2c(-c3ccccc3)nc(NN=Cc3cnc4ccccc4n3)nc2c1 [Z2488926519] | 100 µM (≈ 39 µg/mL) |
| O=C(COC(=O)c1cc(-c2cccc3ccccc23)nc2ccccc12)Nc1cc(C(F)(F)F)ccc1N1CCOCC1 [Z18816890] | 100 µM (≈ 58.6 µg/mL) |
| O=c1[nH]c(CN2CCN(C(c3ccc(F)cc3)c3ccc(F)cc3)CC2)nc2sc3c(c12)CCC3 [Z105382408] | 100 µM (≈ 49.3 µg/mL) |
| O=C(c1ccc(F)cc1)N1CCN(Cc2nc3sc4c(c3c(=O)[nH]2)CCCC4)CC1 [Z26985512] | 25 µM (≈ 10.7 µg/mL) |
| Cc1ccc2nc(-c3ccc(NC(=O)c4cc(-c5ccccc5)nn4-c4ccccc4)cc3)sc2c1 [Z27663993] | 100 µM (≈ 48.7 µg/mL) |
| Cc1ccc(-c2cc(C(=O)Oc3ccc(Oc4ccccc4)cc3)c3ccccc3n2)cc1 [Z30908638] | 100 µM (≈ 43.1 µg/mL) |
| O=S(=O)(c1cccc(C(F)(F)F)c1)N1CCN(c2nc(-c3ccccc3)nc3ccccc23)CC1 [Z31104682] | 100 µM (≈ 49.9 µg/mL) |
| Cc1cccc(Oc2ccc(NC(=O)c3nn(-c4ccccc4)c(=O)c4ccccc34)cc2)c1 [Z29906038] | 100 µM (≈ 44.7 µg/mL) |
| O=C(N=C1N=C2C=CC=CN2Cc2ccccc21)c1cn(-c2ccccc2)nc1-c1ccc(F)cc1 [Z56787786] | 100 µM (≈ 47.4 µg/mL) |
| O=C(Nc1ccc2oc3ccccc3c2c1)c1ccc(=O)n(Cc2ccccc2)n1 [Z30534850] | 100 µM (≈ 39.5 µg/mL) |
| c1ccc(C(c2ccccc2)N2CCN(c3nc4ccccc4c4nc(-c5cccnc5)nn34)CC2)cc1 [Z1157836627] | 100 µM (≈ 49.8 µg/mL) |
| Cc1ccc(-c2cc(C(=O)N3CCN(Cc4nc5ccccc5s4)CC3)c3ccccc3n2)cc1 [Z28583171] | 6.2 µM (≈ 2.97 µg/mL) |
| O=C(CN1C(=O)NC2(CCc3ccccc32)C1=O)NC(c1ccccc1)c1ccc(Cl)cc1 (stereo not drawn) [Z65674656] | 100 µM (≈ 46 µg/mL) |
| O=C(Nc1ccc(-n2cnc3ccccc32)cc1)c1nn(-c2ccccc2)c(=O)c2ccccc12 [Z82203216] | 100 µM (≈ 45.7 µg/mL) |
| Cc1ccc(-c2nn(Cc3ccccc3)cc2C2NC(=O)c3ccccc3N2)cc1 (stereo not drawn) [Z94792468] | 100 µM (≈ 39.4 µg/mL) |
| Cc1nn(-c2ccccc2)c2sc(C(=O)N=C3N=C4C=CC(Br)=CN4Cc4ccccc43)cc12 [Z56688850] | 100 µM (≈ 52.8 µg/mL) |
| Fc1ccc(C2Oc3ccccc3C3CC(c4ccc(-c5ccccc5)cc4)=NN32)cc1 (stereo not drawn) [Z56765649] | 25 µM (≈ 10.5 µg/mL) |
| Clc1ccc2c(-c3ccccc3)cc(-c3c(Cl)nc4ccc(Br)cc4c3-c3ccccc3)nc2c1 [Z2039275273] | 100 µM (≈ 55.6 µg/mL) |
| O=C(CN1CCCC1c1ccc2c(c1)OCCCO2)Nc1ccccc1Cc1ccccc1 (stereo not drawn) [Z65195872] | 50 µM (≈ 22.1 µg/mL) |
| O=C(CN1C(=O)NC2(CCc3ccccc32)C1=O)c1c(-c2ccc(F)cc2)[nH]c2ccccc12 (stereo not drawn) [Z89714290] | 25 µM (≈ 11.3 µg/mL) |

| Compound | MIC |
| --- | --- |
| N#Cc1ccc(CN2CCN(C(=O)c3cc(-c4ccccc4)nn3-c3ccccc3)CC2)cc1 [Z28887309] | 50 µM (≈ 22.4 µg/mL) |
| O=C(CN1CCN(C(=O)c2cccc3ccccc23)CC1)Nc1ccccc1Cc1ccccc1 [Z316384350] | 25 µM (≈ 11.6 µg/mL) |
| Cc1ccc(-c2ccsc2C(=O)NNS(=O)(=O)c2ccc3oc(=O)ccc3c2)cc1 [Z299677296] | 100 µM (≈ 44.1 µg/mL) |
| O=C(CCc1nc2c(cnn2-c2ccccc2)c(=O)[nH]1)N1CCCC1c1ccc2c(c1)OCCCO2 (stereo not drawn) [Z140090268] | 100 µM (≈ 48.6 µg/mL) |
| Cc1ccc2nc(-c3ccc(NC(=O)c4cccc(S(=O)(=O)Nc5cccc(C(F)(F)F)c5)c4)cc3)sc2c1 [Z56810513] | 6.2 µM (≈ 3.52 µg/mL) |
| O=C(NN1C(=O)NC(c2ccccc2)(c2ccccc2)C1=O)c1ccc(-c2ccccc2F)o1 [Z137249014] | 100 µM (≈ 45.5 µg/mL) |
| O=C(Cn1c2ccccc2c(=O)c2ccccc21)NC(c1ccccc1)c1cc2ccccc2o1 (stereo not drawn) [Z229616646] | 100 µM (≈ 45.9 µg/mL) |
| Clc1ccc(-c2nc(NN=Cc3ccc4ccccc4n3)nc3ccccc23)cc1 [Z1187818773] | 100 µM (≈ 41 µg/mL) |
| O=C(c1ccccc1)c1ccc(Cl)cc1Nc1cc(-c2ccccc2)c2ccc(Cl)cc2n1 [Z1386458621] | 100 µM (≈ 46.9 µg/mL) |
| Cc1cccc(C2CC(c3ccc(N(C)C)cc3)=NN2c2nc(-c3ccc(Cl)cc3)c3ccccc3n2)c1 (stereo not drawn) [Z1898794184] | 100 µM (≈ 51.8 µg/mL) |
| O=C(OCc1nc2sc3c(c2c(=O)[nH]1)CCCC3)c1cn(-c2ccccc2)nc1-c1ccccc1 [Z53787257] | 100 µM (≈ 48.3 µg/mL) |
| O=C(CN1C(=O)NC(c2ccccc2)(c2ccccc2)C1=O)NC(c1ccccc1)c1ccccc1 [Z14474580] | 100 µM (≈ 47.6 µg/mL) |
| O=C(N[C@@H](Cc1ccccc1)c1nc2ccccc2[nH]1)c1ccc(-c2cccc(C(F)(F)F)c2)o1 [Z57992786] | 100 µM (≈ 47.5 µg/mL) |
| Cc1ccc(-c2cn3c(C(=S)Nc4ccc(F)cc4)c(-c4ccccc4)c4c3n2CCCC4)cc1 [Z57009953] | 100 µM (≈ 48 µg/mL) |
| Clc1ccc2nc(N3N=C(c4ccccc4)CC3c3cccc(Br)c3)nc(-c3ccccc3)c2c1 (stereo not drawn) [Z1558470019] | 100 µM (≈ 54 µg/mL) |
| O=C(COC(=O)c1c2c(nc3ccccc13)CCN(Cc1ccccc1)C2)Nc1c(F)cccc1F [Z55704575] | 100 µM (≈ 48.8 µg/mL) |
| Cc1ccc(-c2cc(C(=O)N3CCN(Cc4ccncc4)CC3)c3ccccc3n2)cc1 [Z70806128] | 100 µM (≈ 42.3 µg/mL) |
| Nc1nn(C(=O)c2cc(S(=O)(=O)Nc3cccc(C(F)(F)F)c3)ccc2Cl)c2ccccc12 [Z381337772] | 100 µM (≈ 49.5 µg/mL) |
| O=C(Nc1ccc2c(c1)OCO2)C1CCN(C(=O)c2nn(-c3ccccc3)c(=O)c3ccccc23)CC1 [Z99494278] | 100 µM (≈ 49.7 µg/mL) |
| COc1cc2c(cc1NC(=O)c1ccccc1-c1ccc(C(F)(F)F)cc1)oc1ccccc12 [Z30927947] | 100 µM (≈ 46.1 µg/mL) |
| CN1C(=CC=NNC(=O)c2cn(-c3ccccc3)nc2-c2ccccc2)C(C)(C)c2ccccc21 [Z44838075] | 100 µM (≈ 46.2 µg/mL) |
| CC1(c2ccc3ccccc3c2)NC(=O)N(CC(=O)Nc2nc(-c3ccc4c(c3)CCC4)cs2)C1=O (stereo not drawn) [Z28888852] | 3.1 µM (≈ 1.54 µg/mL) |
| O=C(Nc1cn(-c2ccccc2)nc1-c1ccc(F)cc1)Nc1cccc2ccccc12 [Z85924883] | 100 µM (≈ 42.2 µg/mL) |
| O=C(c1ccc2noc(-c3ccccc3)c2c1)N1CCN(Cc2ccc3c(c2)CCO3)CC1 [Z102669950] | 100 µM (≈ 44 µg/mL) |
| c1cncc(-c2nc(N3CCN(Cc4ccc5ccccc5c4)CC3)c3ccccc3n2)c1 [Z237483836] | 100 µM (≈ 43.2 µg/mL) |
| Cc1ccc2c(-c3ccccc3)nc(NN=Cc3c[nH]c4ccccc34)nc2c1 [Z1409330734] | 50 µM (≈ 18.9 µg/mL) |

From paper doi:10.1101/2025.02.03.636334v1 (biorxiv, 2025)
